One compound from patent publication US10323019B2, “Pyrazolylaminobenzimidazole derivatives as JAK inhibitors” (Eli Lilly and Company, priority 2016, dated 2019) can be followed below.

One test concerns the target JAK2 (Homo sapiens (Human), UniProt O60674). Kind of test: Human whole blood assay: pSTAT5 (JAK2) in monocytes, GM-CSF stimulated. In kind it is cell-based. As to conditions: pSTAT5 in CD4Low CD33Hi monocytes. The text has this: (§1) Human Whole Blood Assays: Determination of pSTAT3 (JAK1) and pSTAT5 (JAK2) in Lymphocytes and Monocytes
(§2) Human whole blood (HWB) assays were developed and validated to determine the JAK1 and JAK2 selectivity of test compounds.
(§3) Dilute the test compounds, 10 points, (1:3) in DMSO 100% and a step down in PBS+0.1% BSA. Use Tofacitinib as a reference compound in each plate, as well as a maximum signal (stimulated wells) and a minimum signal (no stimulated wells) in order to normalize data. Obtain a pool of HWB from 4 different healthy donors. Plate the blood in a 96 well plate using a Tecan Evo 96w and incubate with test compounds for 1 h at RT. After this time of incubation, stimulate HWB with both IL6 (206-IL, R&D System) and GM-CSF (PHC2015, Life Technologies) for 15 more minutes. Add a viability dye (65-0865, eBiosicience) (1:1000) using a Tecan Evo 96w (5×mix).
(§4) The final concentrations in the assay are the following: 100 (μM for compounds, 50 μM for Tofacitinib, 0.1 μg/mL IL6, 0.038 μg/mL GM-CSF and 1% DMSO. Lyse and fix HWB using a Lyse/fix buffer (558049, Becton Dickinson) by adding 900 μL of lysis buffer using Tecan Evo 96w (mix 10× high speed). Incubate HWB in bath at 37° C. for 10 minutes. Centrifuge HWB at 500 G, 8 min and discard supernatant. Add cold MeOH using a Tecan Exo 96w in order to permeabilize cells. Incubate blood cells on ice during 30 min. After this, wash cells 2× using Staining buffer (554656, Becton Dickinson), spin at 3000 rpm, 2 min. discard supernatant, and add the following antibodies: Anti-Human CD4 PE, 1:100 (12-0048, eBioscience), Anti-Human CD33 eFluor® 450, 1:50 (48-0337, eBioscience), Phospho-STAT5 (Tyr694) (C71E5) Rabbit mAb, 1:100 (Alexa Fluor® 488 Conjugate) (3939, Cell Signaling) and Phospho-STAT3 (Tyr705) (D3A7) XP™ Rabbit mAb 1:200, (Alexa Fluor® 647 Conjugate) (4324, Cell Signaling). Incubate the antibodies for 1 h in dark at RT, then wash cells 2× and read on Cytometer Macsquant (Miltenyi Biotec). Gate the data on CD4+ (lymphocytes) and CD4Low CD33Hi (monocytes), to measure the fluorescence intensity from cells expressing pSTAT3 and pSTAT5, respectively. Analyze the data using FlowJo v 10 and then normalize the median of fluorescence versus maximum and minimum signal to determine the IC50s. Use Graph Pad Prism 5™ to represent the dose response curves.

Test [1] addresses JAK1 (Rattus norvegicus, UniProt G3V9W2). Kind of test: Rat PK/PD assay: rat whole blood ex vivo JAK1 activity (pSTAT3). The format is in vivo. As to conditions: 30 mpk oral. As for the experimental part: Male Wistar rats, 265-285 grams (Charles River) were used for oral gavage dosing. Dose the animals (Oral gavage) at 1.82 mL/kg (0.5 mL per 275 grams). Formulate the compounds in 1% HEC vehicle containing 0.25% Tween 80 and 0.05% antifoam with 1.1 molar equivalent of methanesulfonic acid to form an in situ salt. Formulate compounds once per week, and store at 4° C. At various time points, obtain rat whole blood via tail vain bleeding in Multivette 600 μl EDTA blood collection tubes (cat#151671100PK100, Sarstedt Inc) and use for ex vivo JAK1 and JAK2 assay. Aliquot 100 ul of blood from each rat into a 96-well round bottom plate. Stimulate whole blood by recombinant IL-6 ([…], and recombinant mouse GM-CSF (cat#415-ML, lot#, R&D) for 12 min at rt. After cytokine stimulation, add whole blood into Lyse/fix (cat#558049, lot#, BD) in minitube rack; mix well 5×. Incubate 10 min at rt. Spin minitube rack at 600 g for 4 min. Aspirate with 12-channel manifold. Transfer contents of minitube rack to 96 well round-bottom plates. Spin down the cells at 3000 rpm for 1 min and discard the supernatant. Mix the cells in the well with 100 ul ice-cold MeOH and incubated on ice for 30 min. Add 150 ul PBS+2% FCS into each well and spin down at 3000 rpm, 2 min. Wash cells with 2× of 250 ul PBS+2% FCS. For cell surface and intracellular staining, mix all antibodies and add into each well and incubate 1 hr at rt in dark. The antibodies used for staining are as following: pSTAT3, Alexa Fluor 647 (cat#4324s, lot, Cell Signaling); pSTAT5, Alexa Fluor 488 (cat#3939s, lot#, Cell Signaling), anti-rat CD4, V450 (cat#561579, lot#. BD); anti-rat CD11b, Percp eFluor710 (cat#12-0110-82, lot#, eBioscience) After staining cells with Abs, wash the plates twice with PBS+2% FCS and finally re-suspend in the same 150 ul of solution. Assess cell viability by Viability Dye 780 (cat#65-0865-14, lot#, eBioscience). Perform the cytometry assay using FORTESSA.

Another test addresses JAK3 (Homo sapiens (Human), UniProt P52333). Kind of test: JAK LanthaScreen Kinase Assay (TR-FRET), JAK3 in vitro enzyme assay. In kind it is biochemical. As to conditions: 20.0 μM ATP. As for the experimental part: The JAK LanthaScreen™ Kinase Assay (Invitrogen) is used to determine the ability of test compounds to inhibit JAK1, JAK2, and JAK3 kinase activity. These are TR-FRET assay formats that use long-lifetime terbium labeled antibody as the donor species and GFP-STAT1 as the acceptor species. Use the TR-FRET ratio to monitor JAK kinase activity where an increase in phosphorylation of the GFP-STAT1 results in an increase in the TR-FRET ratio. Perform the kinase reaction using a 12.5 μl reaction volume in shallow black 384-well Proxiplate®. Add reagents to obtain final reaction conditions of […], 1.76 mM Triton X-100, ATP (20.0 μM for JAK1 and JAK3 or 5 μM for JAK2) enzyme assays, 10.0 mM MgCl2, 1 mM EGTA and 0.01% Brij-35, […] GFP-STAT1, 14 nM JAK1 enzyme for JAK1, 1.0 nM for JAK2 or 2.5 nM for JAK3 enzyme assays, and 4% DMSO and serial dilutions of test compound (diluted 1:3 from 20,000 to 1 nM). Following ATP/GFP-STAT1 addition, centrifuge the assay plates for 1 minute at 1000 revolutions per minute (RPM). Allow the plates to incubate at RT for 60 minutes and then add 12.5 μl of a stopping buffer containing 20 mM EDTA, 2 nM Terbium-anti-phosphorylated Signal Transducers and Activators of Transcription [phosphorylation Tyrosine 701 amino acid] […] Use ACTIVITYBASE® 4.0 to fit the percent inhibition and ten-point compound concentration data to a four-parameter logistic equation.
Background: In TR-FRET formats the signal depends on donor and acceptor labels being close together.

Test [2] has as its target JAK1 (Homo sapiens (Human), UniProt P23458). The test is described as follows: Human whole blood assay: pSTAT3 (JAK1) in lymphocytes, IL6 stimulated. As to conditions: IL6, pSTAT3 in CD4+ lymphocytes. In kind it is cell-based.
Description: as §1, §2, §3, §4

Read-outs that look alike come from different tables or passages of the source.

JAK1 (Rattus norvegicus, UniProt G3V9W2), sequence (G3V9W2 1-1153): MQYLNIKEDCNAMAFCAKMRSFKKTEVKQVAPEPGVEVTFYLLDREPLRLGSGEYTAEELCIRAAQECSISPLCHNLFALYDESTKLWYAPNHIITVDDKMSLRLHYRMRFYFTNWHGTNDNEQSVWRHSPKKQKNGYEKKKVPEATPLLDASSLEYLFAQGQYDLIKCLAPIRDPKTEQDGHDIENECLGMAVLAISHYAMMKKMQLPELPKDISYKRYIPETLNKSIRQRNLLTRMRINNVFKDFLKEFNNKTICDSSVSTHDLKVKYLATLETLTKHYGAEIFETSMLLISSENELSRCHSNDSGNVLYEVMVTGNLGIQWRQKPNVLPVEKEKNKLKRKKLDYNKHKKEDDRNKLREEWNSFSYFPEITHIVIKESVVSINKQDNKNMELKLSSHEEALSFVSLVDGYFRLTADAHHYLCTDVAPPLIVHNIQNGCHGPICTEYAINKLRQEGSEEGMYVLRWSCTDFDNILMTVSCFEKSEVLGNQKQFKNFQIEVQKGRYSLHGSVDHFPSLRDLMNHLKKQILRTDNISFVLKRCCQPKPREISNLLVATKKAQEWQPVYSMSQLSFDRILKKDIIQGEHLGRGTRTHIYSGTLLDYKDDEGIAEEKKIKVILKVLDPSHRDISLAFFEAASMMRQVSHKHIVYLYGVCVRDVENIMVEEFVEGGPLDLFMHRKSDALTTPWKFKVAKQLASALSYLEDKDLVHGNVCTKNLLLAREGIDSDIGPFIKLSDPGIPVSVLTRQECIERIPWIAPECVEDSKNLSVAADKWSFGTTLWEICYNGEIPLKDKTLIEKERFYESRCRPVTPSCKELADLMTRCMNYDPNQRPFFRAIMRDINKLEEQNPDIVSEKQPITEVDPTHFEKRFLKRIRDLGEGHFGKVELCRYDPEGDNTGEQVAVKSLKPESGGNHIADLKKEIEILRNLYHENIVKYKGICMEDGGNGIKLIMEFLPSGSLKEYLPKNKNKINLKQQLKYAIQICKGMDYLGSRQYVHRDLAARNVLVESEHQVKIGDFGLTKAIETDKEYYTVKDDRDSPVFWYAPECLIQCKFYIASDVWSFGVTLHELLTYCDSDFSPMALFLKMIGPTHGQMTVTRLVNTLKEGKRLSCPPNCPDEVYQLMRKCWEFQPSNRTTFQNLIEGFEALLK
JAK2, sequence (O60674 whole entry): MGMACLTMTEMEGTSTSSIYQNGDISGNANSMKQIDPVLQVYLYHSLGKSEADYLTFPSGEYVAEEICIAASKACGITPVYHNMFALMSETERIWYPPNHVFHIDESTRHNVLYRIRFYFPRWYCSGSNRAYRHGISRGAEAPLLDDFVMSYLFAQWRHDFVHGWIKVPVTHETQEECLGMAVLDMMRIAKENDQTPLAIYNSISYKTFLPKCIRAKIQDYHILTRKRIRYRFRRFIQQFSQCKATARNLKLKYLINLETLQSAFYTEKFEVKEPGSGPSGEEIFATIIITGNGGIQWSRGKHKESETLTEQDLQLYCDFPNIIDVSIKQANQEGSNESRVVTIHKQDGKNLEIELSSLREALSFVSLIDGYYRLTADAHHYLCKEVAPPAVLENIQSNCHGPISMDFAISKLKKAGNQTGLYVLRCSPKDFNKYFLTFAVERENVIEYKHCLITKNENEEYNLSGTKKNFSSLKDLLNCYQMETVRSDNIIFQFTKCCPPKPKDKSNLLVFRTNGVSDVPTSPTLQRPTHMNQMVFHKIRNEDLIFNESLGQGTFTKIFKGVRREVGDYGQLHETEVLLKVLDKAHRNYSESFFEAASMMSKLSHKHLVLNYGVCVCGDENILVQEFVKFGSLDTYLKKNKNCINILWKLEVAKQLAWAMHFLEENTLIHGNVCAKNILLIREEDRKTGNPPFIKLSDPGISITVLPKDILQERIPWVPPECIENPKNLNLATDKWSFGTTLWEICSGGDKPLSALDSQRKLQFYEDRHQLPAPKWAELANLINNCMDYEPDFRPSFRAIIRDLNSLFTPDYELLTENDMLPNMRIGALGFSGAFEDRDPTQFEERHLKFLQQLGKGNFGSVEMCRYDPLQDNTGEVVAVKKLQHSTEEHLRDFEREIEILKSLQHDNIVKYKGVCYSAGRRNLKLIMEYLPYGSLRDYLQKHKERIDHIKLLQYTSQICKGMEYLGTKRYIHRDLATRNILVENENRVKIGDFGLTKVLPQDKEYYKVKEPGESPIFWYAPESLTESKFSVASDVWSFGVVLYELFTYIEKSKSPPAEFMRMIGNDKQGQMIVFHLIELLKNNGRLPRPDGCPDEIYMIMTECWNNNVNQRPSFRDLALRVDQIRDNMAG
JAK1 (Homo sapiens (Human), UniProt P23458), sequence (P23458 whole entry): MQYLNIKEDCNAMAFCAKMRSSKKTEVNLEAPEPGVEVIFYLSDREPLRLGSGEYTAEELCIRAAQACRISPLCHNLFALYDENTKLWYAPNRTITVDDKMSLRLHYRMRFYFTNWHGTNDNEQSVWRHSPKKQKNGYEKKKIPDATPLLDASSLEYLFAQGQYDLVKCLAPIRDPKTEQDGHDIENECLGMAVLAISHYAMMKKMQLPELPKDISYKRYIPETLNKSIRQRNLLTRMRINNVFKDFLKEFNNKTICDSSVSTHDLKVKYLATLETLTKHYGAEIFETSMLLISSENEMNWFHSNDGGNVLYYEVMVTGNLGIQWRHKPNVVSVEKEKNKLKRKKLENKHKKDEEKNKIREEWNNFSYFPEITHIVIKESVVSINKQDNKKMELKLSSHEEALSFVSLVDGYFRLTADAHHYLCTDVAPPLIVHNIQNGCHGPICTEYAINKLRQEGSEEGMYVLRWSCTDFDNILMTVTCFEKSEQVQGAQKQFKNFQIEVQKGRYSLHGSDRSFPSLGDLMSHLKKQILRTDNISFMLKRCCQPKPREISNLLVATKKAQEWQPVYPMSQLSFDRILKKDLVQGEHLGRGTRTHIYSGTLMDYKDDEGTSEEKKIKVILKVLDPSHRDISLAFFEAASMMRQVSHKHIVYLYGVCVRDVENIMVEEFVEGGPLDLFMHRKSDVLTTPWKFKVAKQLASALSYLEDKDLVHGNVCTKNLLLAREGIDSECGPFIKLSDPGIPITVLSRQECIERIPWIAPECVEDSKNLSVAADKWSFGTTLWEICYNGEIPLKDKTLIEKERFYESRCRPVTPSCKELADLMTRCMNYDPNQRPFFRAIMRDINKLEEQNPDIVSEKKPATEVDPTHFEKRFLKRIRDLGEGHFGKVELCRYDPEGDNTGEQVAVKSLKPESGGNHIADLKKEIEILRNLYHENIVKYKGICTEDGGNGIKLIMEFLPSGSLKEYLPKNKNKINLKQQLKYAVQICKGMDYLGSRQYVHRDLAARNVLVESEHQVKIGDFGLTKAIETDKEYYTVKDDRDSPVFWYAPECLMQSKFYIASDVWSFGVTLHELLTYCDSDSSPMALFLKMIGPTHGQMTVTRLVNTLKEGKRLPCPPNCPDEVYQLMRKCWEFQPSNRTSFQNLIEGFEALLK
JAK3, sequence (P52333 whole entry): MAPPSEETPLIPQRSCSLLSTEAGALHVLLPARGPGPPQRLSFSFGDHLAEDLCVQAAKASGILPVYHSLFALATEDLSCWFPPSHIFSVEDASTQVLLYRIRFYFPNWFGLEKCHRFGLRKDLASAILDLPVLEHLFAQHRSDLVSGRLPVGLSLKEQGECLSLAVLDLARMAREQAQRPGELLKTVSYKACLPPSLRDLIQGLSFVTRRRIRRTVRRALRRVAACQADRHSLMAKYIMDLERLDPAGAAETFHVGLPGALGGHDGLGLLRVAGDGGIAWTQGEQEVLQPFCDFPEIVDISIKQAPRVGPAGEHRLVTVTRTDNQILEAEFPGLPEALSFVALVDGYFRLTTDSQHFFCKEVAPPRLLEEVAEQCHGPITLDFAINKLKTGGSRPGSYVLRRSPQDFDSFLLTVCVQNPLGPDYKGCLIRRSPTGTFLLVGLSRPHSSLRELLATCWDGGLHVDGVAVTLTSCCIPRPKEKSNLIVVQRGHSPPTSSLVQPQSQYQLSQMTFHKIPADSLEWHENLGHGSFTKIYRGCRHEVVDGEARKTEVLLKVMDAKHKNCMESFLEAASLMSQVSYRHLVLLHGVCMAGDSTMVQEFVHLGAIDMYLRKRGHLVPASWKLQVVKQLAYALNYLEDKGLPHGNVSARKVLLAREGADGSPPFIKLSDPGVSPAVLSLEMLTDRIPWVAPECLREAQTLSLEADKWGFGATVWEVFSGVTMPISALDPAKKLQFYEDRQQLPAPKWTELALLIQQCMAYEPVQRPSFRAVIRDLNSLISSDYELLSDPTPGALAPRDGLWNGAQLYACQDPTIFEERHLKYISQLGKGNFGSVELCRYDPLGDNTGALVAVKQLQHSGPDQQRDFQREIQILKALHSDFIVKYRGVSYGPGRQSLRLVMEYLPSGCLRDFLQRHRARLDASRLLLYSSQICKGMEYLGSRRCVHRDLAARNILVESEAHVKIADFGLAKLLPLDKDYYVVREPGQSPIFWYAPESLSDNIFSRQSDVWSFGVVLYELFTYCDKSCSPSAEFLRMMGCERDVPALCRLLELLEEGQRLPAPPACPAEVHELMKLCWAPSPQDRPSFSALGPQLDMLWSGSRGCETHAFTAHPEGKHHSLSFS

Turning to `COc1cc(Nc2cc(O[C@H]3CC[C@@H](NC[C@@H](O)C(F)(F)F)CC3)cc3c2ncn3C)nn1C` [Example 6, (2R)-1,1,1-Trifluoro-3-{[cis-4-({4-[(5-methoxy-1-methyl-1H-pyrazol-3-yl)amino]-1-methyl-1H-benzimidazol-6-yl}oxy)cyclohexyl]amino}propan-2-ol], the half-maximal inhibitory concentration (IC50) (in general, the concentration needed to halve the response being measured) against JAK2 was 20.3 ± 6.3 µM; against JAK3 it was 2.54 ± 0.51 µM; against JAK1 [2], 3.65 ± 0.79 µM. In addition, the inhibition (as a rule, the share of the control response that was lost under treatment) at 30 mg/kg on JAK1 [1] (2 hr post dosing, read-out: JAK1 inhibition 2 hr post dosing) came to 83.5%; at JAK1 [1] (7 hr post dosing, read-out: JAK1 inhibition 7 hr post dosing) it was 75.4%.
